Drawing on patent US20180148418A1, “AMIDO-SUBSTITUTED CYCLOHEXANE DERIVATIVES” (Bayer Pharma Aktiengesellschaft, priority 2015, published 2018), this text covers IC50 for nine compounds.

The test system of experiment [1] is wildtype Wnt signaling cascade. As to the kind of experiment: HEK293 TOP assay (Super TopFlash luciferase reporter, Wnt-3a stimulated). Format: cell-based. The conditions noted are these: Homo sapiens, HEK293, 16 h, HEK293 TOP reporter cells, Wnt3a at EC50, 16 hours. Summed up:
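HEK293 cells stably carrying Super TopFlash (TOP) run in parallel with FOP cells, 10000/well plated 24 h ahead, stimulated with recombinant human Wnt-3a. Compounds tested 50 μM to 15 nM in 3.16-fold steps in CAFTY buffer pH 7.4 with 2 mM Ca^2+ and 0.01% BSA; luciferase read-out.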

For experiment [2], the target named is T1, TNKS2 (Homo sapiens, UniProt Q9H2K2).
T1 construct: purchased BPS Bioscience, San Diego, USA 80572 (TNKS2 Histone Ribosylation Assay Kit)
T1 sequence (Q9H2K2 1-1166): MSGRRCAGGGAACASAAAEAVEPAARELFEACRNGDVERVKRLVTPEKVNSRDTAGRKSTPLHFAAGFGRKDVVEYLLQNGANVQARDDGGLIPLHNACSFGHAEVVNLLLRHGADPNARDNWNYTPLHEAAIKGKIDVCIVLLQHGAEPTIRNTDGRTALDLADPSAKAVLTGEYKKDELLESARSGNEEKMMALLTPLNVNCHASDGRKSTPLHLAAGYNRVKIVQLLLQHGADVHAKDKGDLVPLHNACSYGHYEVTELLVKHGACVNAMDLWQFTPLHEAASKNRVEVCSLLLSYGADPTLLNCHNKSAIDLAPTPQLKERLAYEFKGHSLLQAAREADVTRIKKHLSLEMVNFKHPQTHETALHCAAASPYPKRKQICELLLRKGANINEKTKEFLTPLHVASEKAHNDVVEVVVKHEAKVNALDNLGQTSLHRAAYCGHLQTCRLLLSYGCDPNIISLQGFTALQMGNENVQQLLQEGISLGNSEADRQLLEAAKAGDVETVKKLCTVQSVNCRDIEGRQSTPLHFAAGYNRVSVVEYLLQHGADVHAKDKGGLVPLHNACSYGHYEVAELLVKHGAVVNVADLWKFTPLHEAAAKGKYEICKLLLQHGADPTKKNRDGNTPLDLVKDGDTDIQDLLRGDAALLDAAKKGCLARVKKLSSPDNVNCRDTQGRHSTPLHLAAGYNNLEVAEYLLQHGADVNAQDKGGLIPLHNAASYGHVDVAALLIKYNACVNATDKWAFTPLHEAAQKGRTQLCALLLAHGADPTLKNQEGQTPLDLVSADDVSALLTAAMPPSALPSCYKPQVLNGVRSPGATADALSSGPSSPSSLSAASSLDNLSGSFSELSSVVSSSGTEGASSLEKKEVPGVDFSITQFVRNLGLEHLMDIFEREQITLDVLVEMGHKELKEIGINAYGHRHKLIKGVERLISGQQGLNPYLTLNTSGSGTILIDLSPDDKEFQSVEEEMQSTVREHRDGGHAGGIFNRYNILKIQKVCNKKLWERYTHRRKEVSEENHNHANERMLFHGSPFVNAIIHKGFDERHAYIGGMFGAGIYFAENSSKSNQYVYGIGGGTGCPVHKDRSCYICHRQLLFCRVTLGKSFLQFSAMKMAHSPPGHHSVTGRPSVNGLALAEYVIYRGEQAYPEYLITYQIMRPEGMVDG
Briefly: TNKS2 Assay B (auto-parsylation, [3H]-NAD+ SPA). It is filed as biochemical. The conditions noted are these: 6 nM TNKS2, auto-parsylation, over night at room temperature.

Experiment [3] concerns HEK293 cells cotransfected with the FOP control vector. As to the kind of experiment: HEK293 FOP assay (control reporter with non-functional TCF elements). Format: cell-based. The conditions noted are these: Homo sapiens, 16 hours. The method, boiled down: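 Stable HEK293 line carrying FOP control reporter (randomized non-functional TCF sites, with pcDNA3), Geneticin-selected, plated 24 h before assay. Stimulated with recombinant human Wnt-3a (2500-5 ng/ml) and compounds 50 μM–15 nM (3.16-fold steps) in CAFTY buffer pH 7.4 with 2 mM Ca2+, 0.01% BSA, run parallel to TOP line.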

Usually IC50 stands for the concentration needed to halve the response being measured. Read a low IC50 as greater potency in that assay. For `O=C(N[C@H]1CC[C@H](C(=O)Nc2ccc(F)cc2Cl)CC1)c1cnc2cccnn12` [Example 45, N-{trans-4-[(2-chloro-4-fluorophenyl)carbamoyl]cyclohexyl}imidazo[1,2-b]pyridazine-3-carboxamide], the IC50 in experiment [1] was 0.16 µM; in experiment [2], 0.13 µM; in experiment [3], no less than 50 µM.

As for `COCC(C)NC(=O)c1nc[nH]c1C(=O)N[C@H]1CC[C@H](C(=O)Nc2ccc(F)cc2Cl)CC1` (stereo partly drawn) [Example 82, N^5-{trans-4-[(2-chloro-4-fluorophenyl)carbamoyl]cyclohexyl}-N^4-(1-methoxypropan-2-yl)-1H-imidazole-4,5-dicarboxamide], the results for the IC50 in experiment [1], in experiment [2] and in experiment [3] were 0.38 µM, 0.25 µM and no less than 50 µM, respectively.

For `Cc1cc(C)n2ncc(C(=O)N[C@H]3CC[C@@]4(CCCN(c5cc(C)c(F)cc5Cl)C4=O)CC3)c2n1` [Example 302, N-[(trans)-2-(2-chloro-4-fluoro-5-methylphenyl)-1-oxo-2-azaspiro[5.5]undec-9-yl]-5,7-dimethylpyrazolo[1,5-a]pyrimidine-3-carboxamide], the values for the IC50 in experiment [1], in experiment [2] and in experiment [3] were 0.042 µM, 0.069 µM and no less than 0.5 µM, respectively.

For the compound `CNC(=O)c1nc[nH]c1C(=O)N[C@H]1CC[C@H](C(=O)Nc2c(Br)cc(F)c(F)c2F)CC1` [Example 27, N^5-{trans-4-[(6-bromo-2,3,4-trifluorophenyl)carbamoyl]cyclohexyl}-N^4-methyl-1H-imidazole-4,5-dicarboxamide], the IC50 in experiment [1] was 0.035 µM; in experiment [2] it was 0.019 µM; in experiment [3], no less than 50 µM.

Turning to `O=C(N[C@H]1CC[C@H](C(=O)Nc2ccc(F)cc2Cl)CC1)c1cnc2ccc(O)nn12` [Example 360, N-{trans-4-[(2-chloro-4-fluorophenyl)carbamoyl]cyclohexyl}-6-hydroxyimidazo[1,2-b]pyridazine-3-carboxamide], the results for the IC50 in experiment [1], in experiment [2] and in experiment [3] were 10 µM, 1.7 µM and no less than 50 µM, respectively.

Turning to `CNC(=O)c1[nH]cnc1C(=O)N[C@H]1CC[C@H](C(=O)Nc2ccc(F)cc2Cl)CC1(F)F` (single isomer, unassigned) [Example 33, N^4-{(trans)-4-[(2-chloro-4-fluorophenyl)carbamoyl]-2,2-difluorocyclohexyl}-N^5-methyl-1H-imidazole-4,5-dicarboxamide], the IC50 in experiment [1] is 0.7 µM; in experiment [2] it was 0.38 µM; in experiment [3] it was no less than 50 µM.

For `CNC(=O)c1nc[nH]c1C(=O)N[C@H]1CC[C@H](C(=O)Nc2cc(N3CCOCC3)ccc2Cl)CC1` [Example 88, N^5-(trans-4-{[2-chloro-5-(morpholin-4-yl)phenyl]carbamoyl}cyclohexyl)-N^4-methyl-1H-imidazole-4,5-dicarboxamide], the IC50 in experiment [1] is 2.4 µM; in experiment [2], 7.1 µM; in experiment [3], no less than 50 µM.

As for `O=C(N[C@H]1CC[C@H](C(=O)Nc2ccc(F)cc2Cl)CC1)c1cnc2ccc(N3CCOCC3)nn12` [Example 48, N-{trans-4-[(2-chloro-4-fluorophenyl)carbamoyl]cyclohexyl}-6-(morpholin-4-yl)imidazo[1,2-b]pyridazine-3-carboxamide], the values for the concentration for half-maximal inhibition (IC50) in experiment [1], in experiment [2] and in experiment [3] were 0.41 µM, 0.31 µM and 14 µM, respectively.

On to `CC(=O)c1cnc2c(C(=O)N[C@H]3CC[C@H](C(=O)Nc4ccc(F)cc4Cl)CC3)cnn2c1C` [Example 46, 6-acetyl-N-{trans-4-[(2-chloro-4-fluorophenyl)carbamoyl]cyclohexyl}-7-methylpyrazolo[1,5-a]pyrimidine-3-carboxamide], for which the 50% inhibitory concentration (IC50) in experiment [1] is 0.097 µM; in experiment [2] it was 0.025 µM; in experiment [3], no less than 50 µM.
